Results from ChEMBL document CHEMBL1140059, “Discovery of potent and selective small-molecule PAR-2 agonists” (J Med Chem, 2008).
Calls of active or inactive are those of the source. The rule behind the calls is not given here. Square brackets hold non-standard residues; d marks the D form. Peptide text beside a SMILES is read from it. * marks the point of attachment. Orn = NCCC[C@H](N)C(=O)O; 2Furoyl = O=C(c1ccco1)*

Experiments:
[1] = target: Proteinase-activated receptor 2 (Homo sapiens) (UniProt P55085); assay: Agonist activity at human PAR2 expressed in HEK293T cells assessed as effect on intracellular calcium mobilization by R-SAT assay relative to SLIGRL-NH2; format: functional, cell-based; conditions: HEK-293T
[2] = target: T1, Proteinase-activated receptor 2 (Homo sapiens, UniProt P55085); assay: Agonist activity at human PAR2 expressed in HEK293T cells assessed as effect on intracellular calcium mobilization by R-SAT assay; format: functional, cell-based, HEK-293T
T1 sequence (P55085 whole entry): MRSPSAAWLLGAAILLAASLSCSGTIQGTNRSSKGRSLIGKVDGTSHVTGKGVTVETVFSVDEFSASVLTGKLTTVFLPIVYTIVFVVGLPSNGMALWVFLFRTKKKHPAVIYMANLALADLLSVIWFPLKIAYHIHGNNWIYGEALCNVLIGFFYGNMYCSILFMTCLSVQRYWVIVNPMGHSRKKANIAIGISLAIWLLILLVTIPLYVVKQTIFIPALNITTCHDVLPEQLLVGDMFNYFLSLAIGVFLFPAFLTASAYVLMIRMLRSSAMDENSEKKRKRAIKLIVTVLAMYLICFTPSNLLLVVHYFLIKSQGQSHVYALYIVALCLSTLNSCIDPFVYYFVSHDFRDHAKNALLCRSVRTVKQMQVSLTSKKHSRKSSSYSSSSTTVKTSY

[3] = target: Proteinase-activated receptor 2 (Homo sapiens) (UniProt P55085); assay: Agonist activity at human PAR2 expressed in HEK293T cells assessed as effect on phosphatidyl inositol hydrolysis; format: functional, cell-based; conditions: HEK-293T
[4] = Metabolic stability in rat liver microsomes assessed as intrinsic clearance; format: ADME, Microsome
[5] = Metabolic stability in human liver microsomes assessed as intrinsic clearance; format: ADME, Microsome
[6] = target: T2, Proteinase-activated receptor 1 (Homo sapiens) (UniProt P25116); assay: Agonist activity at PAR1; format: functional
T2 sequence (whole entry): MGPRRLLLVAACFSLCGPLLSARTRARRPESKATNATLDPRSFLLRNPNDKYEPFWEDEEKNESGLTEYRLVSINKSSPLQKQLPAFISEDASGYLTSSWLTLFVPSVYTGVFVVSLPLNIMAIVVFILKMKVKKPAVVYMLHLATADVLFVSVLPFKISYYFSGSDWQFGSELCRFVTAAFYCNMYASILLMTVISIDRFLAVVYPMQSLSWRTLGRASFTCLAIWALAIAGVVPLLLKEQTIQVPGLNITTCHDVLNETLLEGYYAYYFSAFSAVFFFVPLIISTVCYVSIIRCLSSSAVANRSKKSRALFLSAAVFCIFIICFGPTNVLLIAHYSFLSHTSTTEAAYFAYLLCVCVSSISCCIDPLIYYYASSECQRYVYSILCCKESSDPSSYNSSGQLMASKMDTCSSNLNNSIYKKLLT

[7] = target: T3, Proteinase-activated receptor 4 (Homo sapiens) (UniProt Q96RI0); assay: Agonist activity at PAR4; format: functional
T3 sequence (whole entry): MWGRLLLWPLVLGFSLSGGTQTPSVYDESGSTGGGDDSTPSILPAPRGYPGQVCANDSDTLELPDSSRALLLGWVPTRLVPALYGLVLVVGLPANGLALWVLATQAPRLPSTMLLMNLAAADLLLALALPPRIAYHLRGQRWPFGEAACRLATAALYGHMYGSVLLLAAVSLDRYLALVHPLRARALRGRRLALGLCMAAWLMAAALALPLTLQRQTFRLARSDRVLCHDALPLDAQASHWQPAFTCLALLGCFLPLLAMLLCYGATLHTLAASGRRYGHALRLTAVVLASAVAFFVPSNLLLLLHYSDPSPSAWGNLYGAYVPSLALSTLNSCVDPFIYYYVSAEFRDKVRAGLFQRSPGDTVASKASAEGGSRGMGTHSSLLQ

[8] = target: T4, Proteinase-activated receptor 3 (Homo sapiens) (UniProt O00254); assay: Agonist activity at PAR3; format: functional
T4 sequence (whole entry): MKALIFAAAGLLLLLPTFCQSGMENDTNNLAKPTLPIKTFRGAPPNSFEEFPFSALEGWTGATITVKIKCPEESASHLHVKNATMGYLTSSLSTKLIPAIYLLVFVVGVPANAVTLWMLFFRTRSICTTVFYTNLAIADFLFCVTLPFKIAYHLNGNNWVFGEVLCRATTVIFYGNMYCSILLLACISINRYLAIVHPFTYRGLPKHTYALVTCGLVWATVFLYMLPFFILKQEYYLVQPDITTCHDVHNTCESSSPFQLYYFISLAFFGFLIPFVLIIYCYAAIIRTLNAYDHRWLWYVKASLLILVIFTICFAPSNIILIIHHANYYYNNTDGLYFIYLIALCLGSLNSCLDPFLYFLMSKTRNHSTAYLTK

Rattus norvegicus [9] = assay: Induction of inflammation assessed as incidence of paw edema in intrapaw dosed rat; format: functional, organism-based
Rattus norvegicus [10] = assay: Induction nociception assessed as incidence of thermal hyperalgesia in intrapaw dosed rat; format: functional, organism-based
[11] = Solubility in presence of 25% Tween; format: physicochemical

Molecule | Efficacy [1] [%] | EC50 [2] [µM] | further results
C/C(=N\NC(=O)[C@@H]1C(=O)NC[C@H]1c1ccccc1)c1cccc(Br)c1 (stereo in doubt; (-)-3) [listing 1 of 2 here] | 10 | – | –
C/C(=N\NC(=O)[C@@H]1C(=O)NC[C@H]1c1ccccc1)c1cccs1 | 30 | 6.31 | –
C/C(=N\NC(=O)C(NC(=O)c1ccccc1)c1n[nH]c(=O)c2ccccc12)c1cccc(Br)c1 (stereo not given) | 81 | 0.2 | Activity [3]: Active; microsomal CLint [4]: 6 µL/min/mg; microsomal CLint [5]: 19 µL/min/mg; Activity [6]: inactive; Activity [7]: inactive; Activity [8]: inactive; Activity (Rattus norvegicus [9]): Dose-dependent effect; Activity (Rattus norvegicus [10]): Dose-dependent effect
O=C1NC[C@@H](c2ccccc2)[C@@H]1C(=O)N/N=C1\CCc2ccc(Br)cc21 | 62 | 0.126 | –
CC[C@H](C)[C@H](NC(=O)[C@H](CC(C)C)NC(=O)c1ccco1)C(=O)NCC(=O)N[C@@H](CCCN=C(N)N)C(=O)N[C@@H](CC(C)C)C(=O)N[C@@H](CCCN)C(N)=O (2Furoyl-LIGRL[Orn]-NH2) | – | 0.0251 | –
C/C(=N\NC(=O)[C@@H]1C(=O)NC[C@H]1c1cccc(Br)c1)c1cccc(Br)c1 | 82 | 0.0251 | –
C/C(=N\NC(=O)[C@@H]1C(=O)NC[C@H]1c1ccccc1)c1cccc(Br)c1 (stereo in doubt; 3) [listing 1 of 2 here] | 93 | – | Activity [3]: Active; Activity [6]: inactive; Activity [7]: inactive; Activity [8]: inactive; Activity (Rattus norvegicus [9]): Dose-dependent effect; Activity (Rattus norvegicus [10]): Dose-dependent effect
C/C(=N\NC(=O)[C@@H]1C(=O)NC[C@H]1c1ccccc1)c1cccc(Br)c1 (stereo in doubt; (+)-3) [listing 1 of 2 here] | 91 | – | –
C/C(=N\NC(=O)[C@@H]1C(=O)NC[C@H]1c1ccccc1)c1ccccc1Br | 11 | 10 | –
H-SLIGRL-NH2 | 100 | 10 | –
C/C(=N\NC(=O)[C@@H]1C(=O)NC[C@H]1c1ccccc1)c1ccc(Br)s1 | 49 | 2.51 | –
C/C(=N\NC(=O)[C@@H]1C(=O)NC[C@H]1c1ccccc1)c1cccc(Br)c1 (stereo in doubt; (-)-3) [listing 2 of 2 here] | – | > 10 | –
CC(C)=CN1C[C@@H](c2ccccc2)[C@H](C(=O)N/N=C(\C)c2cccc(Br)c2)C1=O | 72 | 0.0501 | –
C/C(=N\NC(=O)[C@@H]1C(=O)NC[C@H]1c1ccccc1)c1cccc(Br)c1 (stereo in doubt; (+)-3) [listing 2 of 2 here] | – | 0.0316 | –
C/C(=N\NC(=O)[C@@H]1C(=O)NC[C@H]1c1ccccc1)c1ccc(Br)cc1 | 32 | 7.94 | –
CC[C@H](C)[C@H](NC(=O)[C@H](CC(C)C)NC(=O)c1ccco1)C(=O)NCC(=O)N[C@@H](CCCNC(=N)N)C(=O)N[C@@H](CC(C)C)C(=O)N[C@@H](CCCN)C(N)=O (2Furoyl-LIGRL[Orn]-NH2) | 89 | – | –
C/C(=N\NC(=O)[C@@H]1C(=O)NC[C@H]1c1ccccc1)c1cccc(Br)c1 (stereo in doubt; 3) [listing 2 of 2 here] | – | 0.0316 | microsomal CLint [4]: 37 µL/min/mg; microsomal CLint [5]: 9 µL/min/mg; solubility [11]: > 2000 µg/mL
C/C(=N\N(C)C(=O)[C@@H]1C(=O)NC[C@H]1c1ccccc1)c1cccc(Br)c1 | 35 | 6.31 | –
